Measurements from ChEMBL document CHEMBL6074662, “Antibacterial, Antibiofilm, and Anti-inflammatory Effects of a Novel Thrombin-Derived Peptide in Sepsis Models: Insights into Underlying Mechanisms” (J Med Chem, 2024).
The source made the active and inactive calls. The calls are words filed in the database; no cut-off is given here.

Experiments:
[1] = Hydrophobicity of compound assessed as retention time by RP-HPLC analysis; assay type: physicochemical
[2] = system: Staphylococcus epidermidis; assay: Antibacterial activity against Staphylococcus epidermidis KCTC 1917 incubated for 24 hrs by CLSI based broth microdilution method; assay type: functional
Escherichia coli [3] = assay: Antibacterial activity against Escherichia coli KCTC 1682 incubated for 24 hrs in presence of human serum by CLSI based broth microdilution method; assay type: functional
Enterococcus faecium = assay: Antibacterial activity against vancomycin-resistant Enterococcus faecium ATCC 51559 incubated for 24 hrs by CLSI based broth microdilution method; assay type: functional
Pseudomonas aeruginosa [4] = assay: Antibacterial activity against multidrug-resistant Pseudomonas aeruginosa CCARM 2109 incubated for 24 hrs by CLSI based broth microdilution method; assay type: functional
Acinetobacter baumannii [5] = assay: Antibacterial activity against multidrug-resistant Acinetobacter baumannii 329-53 incubated for 24 hrs by CLSI based broth microdilution method; assay type: functional
Acinetobacter baumannii [6] = assay: Antibacterial activity against carbapenem-resistant Acinetobacter baumannii NMS 1707 incubated for 24 hrs by CLSI based broth microdilution method; assay type: functional
Escherichia coli [7] = assay: Antibacterial activity against Escherichia coli KCTC 1682 incubated for 24 hrs in presence of NaCl by CLSI based broth microdilution method; assay type: functional
Escherichia coli [8] = assay: Antibacterial activity against Escherichia coli KCTC 1682 incubated for 24 hrs in presence of NH4Cl by CLSI based broth microdilution method; assay type: functional
[9] = Hemolytic activity in sheep RBC at 256 uM incubated for 1 hr by absorbance based assay; assay type: toxicity, cell-based, Ovis aries, Erythrocyte; conditions: sheep red blood cells, read-out: Activity
[10] = Effect on secondary structure of drug in SDS assessed as fold increase in formation of alpha-helical conformation at 150 uM by CD analysis relative to HVF18; assay type: physicochemical
Escherichia coli [11] = assay: Induction of cytoplasmic membrane depolarization in Escherichia coli KCTC 1682 at MIC measured for 500 secs by diSC3-5 dye based analysis relative to control; assay type: functional; conditions: time 500 sec; 0.1389 h
Escherichia coli [12] = assay: Induction of outer membrane permeabilization in Escherichia coli KCTC 1682 by NPN dye based analysis; assay type: functional, organism-based
Pseudomonas aeruginosa [13] = assay: Eradication of biofilm formation in multi-drug resistant Pseudomonas aeruginosa CCARM 2095 at 32 uM incubated for 12 hrs by CLSM analysis relative to control; assay type: functional
Pseudomonas aeruginosa [14] = assay: Eradication of biofilm formation in multi-drug resistant Pseudomonas aeruginosa CCARM 2095 at 1 to 128 uM incubated for 12 hrs by CLSM analysis; assay type: functional, organism-based; conditions: dose 1-128 µM
Pseudomonas aeruginosa [15] = assay: Anti-biofilm activity against multi-drug resistant Pseudomonas aeruginosa CCARM 2095 assessed as increase in red-stained dead cells at 32 uM incubated for 12 hrs by SYTO9/PI staining based analysis; assay type: functional, organism-based
Staphylococcus aureus [16] = assay: Antibacterial activity against methicillin-resistant Staphylococcus aureus CCARM 3089 incubated for 24 hrs by broth microdilution method; assay type: functional
Staphylococcus aureus [17] = assay: Synergistic antibacterial activity against methicillin-resistant Staphylococcus aureus CCARM 3089 incubated for 24 hrs in presence of Chloramphenicol by broth microdilution method; assay type: functional
Staphylococcus aureus [18] = assay: Synergistic antibacterial activity against methicillin-resistant Staphylococcus aureus CCARM 3089 assessed as fractional inhibitory concentration index by measuring ratio of MIC of compound in presence of Chloramphenicol to MIC to compound incubated for 24 hrs by broth microdilution method; assay type: functional
Staphylococcus aureus [19] = assay: Synergistic antibacterial activity against methicillin-resistant Staphylococcus aureus CCARM 3089 assessed as fractional inhibitory concentration index incubated for 24 hrs in presence of Chloramphenicol by broth microdilution method; assay type: functional
Staphylococcus aureus [20] = assay: Synergistic antibacterial activity against methicillin-resistant Staphylococcus aureus CCARM 3089 assessed as MIC of Ciprofloxacin incubated for 24 hrs by broth microdilution method; assay type: functional
Staphylococcus aureus [21] = assay: Synergistic antibacterial activity against methicillin-resistant Staphylococcus aureus CCARM 3089 incubated for 24 hrs in presence of Ciprofloxacin by broth microdilution method; assay type: functional
Staphylococcus aureus [22] = assay: Synergistic antibacterial activity against methicillin-resistant Staphylococcus aureus CCARM 3089 assessed as fractional inhibitory concentration index by measuring ratio of MIC of Oxacillin in presence of compound to MIC to Oxacillin incubated for 24 hrs by broth microdilution method; assay type: functional
Staphylococcus aureus [23] = assay: Synergistic antibacterial activity against methicillin-resistant Staphylococcus aureus CCARM 3089 assessed as fractional inhibitory concentration index by measuring ratio of MIC of compound in presence of Oxacillin to MIC to compound incubated for 24 hrs by broth microdilution method; assay type: functional
Pseudomonas aeruginosa [24] = assay: Synergistic antibacterial activity against multi-drug resistant Pseudomonas aeruginosa CCARM 2095 assessed as MIC of Chloramphenicol incubated for 24 hrs by broth microdilution method; assay type: functional
Pseudomonas aeruginosa [25] = assay: Synergistic antibacterial activity against multi-drug resistant Pseudomonas aeruginosa CCARM 2095 assessed as fractional inhibitory concentration index incubated for 24 hrs in presence of Chloramphenicol by broth microdilution method; assay type: functional
Pseudomonas aeruginosa [26] = assay: Synergistic antibacterial activity against multi-drug resistant Pseudomonas aeruginosa CCARM 2095 assessed as fractional inhibitory concentration index incubated for 24 hrs in presence of Ciprofloxacin by broth microdilution method; assay type: functional
Pseudomonas aeruginosa [27] = assay: Synergistic antibacterial activity against multi-drug resistant Pseudomonas aeruginosa CCARM 2095 assessed as fractional inhibitory concentration index by measuring ratio of MIC of Oxacillin in presence of compound to MIC to Oxacillin incubated for 24 hrs by broth microdilution method; assay type: functional
Pseudomonas aeruginosa [28] = assay: Synergistic antibacterial activity against multi-drug resistant Pseudomonas aeruginosa CCARM 2095 incubated for 24 hrs in presence of Oxacillin by broth microdilution method; assay type: functional
Pseudomonas aeruginosa [29] = assay: Synergistic antibacterial activity against multi-drug resistant Pseudomonas aeruginosa CCARM 2095 assessed as fractional inhibitory concentration index by measuring ratio of MIC of compound in presence of Oxacillin to MIC to compound incubated for 24 hrs by broth microdilution method; assay type: functional
RAW264.7 [30] = assay: Anti-inflammatory activity in mouse RAW264.7 cells assessed as inhibition of LPS-induced NO production at 5 uM pretreated for 1 hr followed by LPS treatment for 16 hrs by Griess assay relative to control; assay type: functional; conditions: time 17 hrs
RAW264.7 [31] = assay: Anti-inflammatory activity in mouse RAW264.7 cells assessed as decrease in LPS-induced TNF-alpha level at 5 uM pretreated for 1 hr followed by LPS treatment for 16 hrs by ELISA relative to control; assay type: functional; conditions: time 17 hrs
RAW264.7 [32] = assay: Anti-inflammatory activity in mouse RAW264.7 cells assessed as decrease in LPS-induced IL-6 level at 2.5 uM pretreated for 1 hr followed by LPS treatment for 16 hrs by ELISA relative to control; assay type: functional; conditions: time 17 hrs
RAW264.7 [33] = assay: Anti-inflammatory activity in mouse RAW264.7 cells assessed as decrease in LPS-induced ROS production at 5 uM pretreated for 1 hr followed by LPS treatment for 16 hrs by DCFDA staining based analysis relative to control; assay type: functional
[34] = Cytotoxicity against mouse RAW264.7 cells assessed as cell survival at 10 to 20 uM incubated for 16 hrs by WST-8 assay relative to control; assay type: toxicity, cell-based; conditions: dose 10-20 µM, read-out: Survival
[35] = Cytotoxicity against mouse RAW264.7 cells assessed as cell viability at 30 uM incubated for 16 hrs by WST-8 assay relative to control; assay type: toxicity, cell-based; conditions: read-out: Activity

Substance | Retention_time [1] | MIC [2] | MIC (Escherichia coli [3]) | MIC (Enterococcus faecium) | MIC (Pseudomonas aeruginosa [4]) | MIC (Acinetobacter baumannii [5]) | MIC (Acinetobacter baumannii [6]) | MIC (Escherichia coli [7]) | MIC (Escherichia coli [8]) | hemolysis at 1 h, 256 µM [9] | fold change (FC) [10] | Activity (Escherichia coli [11]) | Activity (Escherichia coli [12]) | Activity (Pseudomonas aeruginosa [13]) | Activity (Pseudomonas aeruginosa [14]) | Activity (Pseudomonas aeruginosa [15]) | MIC (Staphylococcus aureus [16]) | MIC (Staphylococcus aureus [17]) | FIC (Staphylococcus aureus [18]) | fractional inhibitory concentration index (FICI) (Staphylococcus aureus [19]) | other results
H-GVFRLKKWIKKVIKKWGK-NH2 | 20.06 min | 8 µM | 32 µM | 8 µM | 16 µM | 4 µM | 4 µM | 32 µM | 16 µM | 8.9% | ~ 5 | ~100% | Dose-dependent-effect | >50% | Active; Superior Activity Compared To Ll-37 | Active | 8 µM | 2 µM | 0.25 | 0.5 | MIC (Staphylococcus aureus [20]): 512 µM; MIC (Staphylococcus aureus [21]): 2 µM; FIC (Staphylococcus aureus [22]): 0.25; FIC (Staphylococcus aureus [23]): 0.063; MIC (Pseudomonas aeruginosa [24]): 512 µM; fractional inhibitory concentration index (FICI) (Pseudomonas aeruginosa [25]): 0.375; fractional inhibitory concentration index (FICI) (Pseudomonas aeruginosa [26]): 0.625; FIC (Pseudomonas aeruginosa [27]): 0.031; MIC (Pseudomonas aeruginosa [28]): 2 µM; FIC (Pseudomonas aeruginosa [29]): 0.25; inhibition at 5 µM (RAW264.7 [30]): 89%; inhibition at 5 µM (RAW264.7 [31]): 5.7%; inhibition at 2.5 µM (RAW264.7 [32]): 28.6%; inhibition at 5 µM (RAW264.7 [33]): 40%; viability at 16 h, up to 20 µM [34]: > 95%; viability at 16 h, 30 µM [35]: > 80%
H-GVFRLKKWLKKVKKWGK-NH2 | 21.66 min | 8 µM | 32 µM | 8 µM | 8 µM | 4 µM | 4 µM | 32 µM | 16 µM | 9.1% | ~ 5 | ~100% | Dose-dependent-effect | >50% | Active; Superior Activity Compared To Ll-37 | Active | 8 µM | 0.5 µM | 0.063 | 0.563 | MIC (Staphylococcus aureus [20]): 512 µM; MIC (Staphylococcus aureus [21]): 4 µM; FIC (Staphylococcus aureus [22]): 0.25; FIC (Staphylococcus aureus [23]): 0.063; MIC (Pseudomonas aeruginosa [24]): 512 µM; fractional inhibitory concentration index (FICI) (Pseudomonas aeruginosa [25]): 0.375; fractional inhibitory concentration index (FICI) (Pseudomonas aeruginosa [26]): 0.75; FIC (Pseudomonas aeruginosa [27]): 0.031; MIC (Pseudomonas aeruginosa [28]): 2 µM; FIC (Pseudomonas aeruginosa [29]): 0.25; inhibition at 5 µM (RAW264.7 [30]): 91.6%; inhibition at 5 µM (RAW264.7 [31]): 78.1%; inhibition at 2.5 µM (RAW264.7 [32]): 98.5%; inhibition at 5 µM (RAW264.7 [33]): 51.1%; viability at 16 h, up to 20 µM [34]: > 95%; viability at 16 h, 30 µM [35]: > 80%
